Measured values taken from ChEMBL document CHEMBL5505964, “HDAC/NAMPT dual inhibitors overcome initial drug-resistance in p53-null leukemia cells” (Eur J Med Chem, 2024).

What was measured:
[1] = tested on: MV4-11; experiment: Antiproliferative activity against human MV4-11 cells harboring wild type p53 assessed as induction of cell death incubated for 48 hrs by resazurin dye based fluorescence analysis; type: functional; conditions: read-out: LD50 (the source's name)
[2] = tested on: HL-60; experiment: Antiproliferative activity against p53-null human HL-60 cells assessed as induction of cell death incubated for 48 hrs in presence of nicotinamide mononucleotide by resazurin dye based fluorescence analysis; type: functional; conditions: read-out: LD50 (the source's name)
[3] = target: T1, Histone deacetylase 7 (Homo sapiens, UniProt Q8WUI4); experiment: Inhibition of N-terminal GST-tagged human HDAC7 (518 to end residues) expressed in baculovirus-infected Sf9 cells using Boc-Lys-(trifluoroacetyl)-AMC as substrate preincubated with enzyme for 1 hr followed by substrate addition and measured after 2 hrs by fluorescence analysis
T1 sequence (Q8WUI4 whole entry): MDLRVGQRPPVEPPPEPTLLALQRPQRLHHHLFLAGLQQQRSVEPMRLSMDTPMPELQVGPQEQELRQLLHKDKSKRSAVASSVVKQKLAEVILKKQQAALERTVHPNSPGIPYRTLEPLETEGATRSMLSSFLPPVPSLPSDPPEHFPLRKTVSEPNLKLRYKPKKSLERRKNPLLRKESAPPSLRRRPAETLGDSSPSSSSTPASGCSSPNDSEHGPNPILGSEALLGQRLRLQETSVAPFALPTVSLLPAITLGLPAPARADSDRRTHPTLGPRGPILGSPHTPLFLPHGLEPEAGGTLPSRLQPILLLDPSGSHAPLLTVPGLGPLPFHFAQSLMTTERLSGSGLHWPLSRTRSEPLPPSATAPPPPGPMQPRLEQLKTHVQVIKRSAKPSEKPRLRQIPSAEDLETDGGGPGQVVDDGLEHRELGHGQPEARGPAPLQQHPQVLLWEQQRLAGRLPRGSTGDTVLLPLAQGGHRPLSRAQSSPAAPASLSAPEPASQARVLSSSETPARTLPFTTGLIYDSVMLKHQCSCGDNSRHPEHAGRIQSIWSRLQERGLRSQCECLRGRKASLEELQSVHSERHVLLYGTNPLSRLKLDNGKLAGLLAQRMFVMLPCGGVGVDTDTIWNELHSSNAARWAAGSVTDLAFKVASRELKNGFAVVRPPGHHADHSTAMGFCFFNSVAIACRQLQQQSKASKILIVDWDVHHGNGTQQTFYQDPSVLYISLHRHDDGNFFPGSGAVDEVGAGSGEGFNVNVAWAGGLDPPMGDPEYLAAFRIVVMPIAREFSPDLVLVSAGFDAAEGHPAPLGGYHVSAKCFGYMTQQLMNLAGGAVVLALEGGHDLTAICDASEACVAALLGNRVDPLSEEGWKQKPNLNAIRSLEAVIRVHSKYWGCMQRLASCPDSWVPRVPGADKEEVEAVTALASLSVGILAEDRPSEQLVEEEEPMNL

[4] = target: T2, Histone deacetylase 8 (Homo sapiens, UniProt Q9BY41); experiment: Inhibition of C-terminal His-tagged full length human recombinant HDAC8 (1 to 377 residues) expressed in baculovirus-infected Sf9 cells using Boc-Lys-(trifluoroacetyl)-AMC as substrate preincubated with enzyme for 1 hr followed by substrate addition and measured after 2 hrs by fluorescence analysis
T2 sequence (Q9BY41 whole entry): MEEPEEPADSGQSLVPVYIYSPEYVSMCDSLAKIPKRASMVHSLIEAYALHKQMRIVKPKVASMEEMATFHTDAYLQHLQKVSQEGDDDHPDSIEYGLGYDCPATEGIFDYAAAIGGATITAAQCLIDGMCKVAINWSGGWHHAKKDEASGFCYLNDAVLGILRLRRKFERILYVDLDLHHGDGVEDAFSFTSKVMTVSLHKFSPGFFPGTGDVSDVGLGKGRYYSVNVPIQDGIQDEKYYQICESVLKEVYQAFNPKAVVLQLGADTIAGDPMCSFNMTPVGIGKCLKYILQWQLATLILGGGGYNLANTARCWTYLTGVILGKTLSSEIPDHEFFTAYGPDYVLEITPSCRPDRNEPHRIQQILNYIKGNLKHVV

[5] = tested on: MV4-11; experiment: cells; type: functional, cell-based; conditions: Homo sapiens; for GI50: MV4-11, time 48 hrs
[6] = tested on: HL-60; experiment: Antiproliferative activity against p53-null human HL-60 cells assessed as inhibition of cell growth incubated for 48 hrs by resazurin dye based fluorescence analysis; type: functional
[7] = target: Histone deacetylase 9 (Homo sapiens, UniProt Q9UKV0); experiment: Inhibition of C-terminal His-tagged human recombinant HDAC9 (604 to 1066 residues) expressed in baculovirus-infected Sf9 cells using Boc-Lys-(trifluoroacetyl)-AMC as substrate preincubated with enzyme for 1 hr followed by substrate addition and measured after 2 hrs by fluorescence analysis
[8] = target: Histone deacetylase 4 (Homo sapiens, UniProt P56524); experiment: Inhibition of C-terminal His-tagged/N-terminal GST-tagged human HDAC4 (627 to 1084 residues) expressed in baculovirus-infected Sf9 cells using Boc-Lys-(trifluoroacetyl)-AMC as substrate preincubated with enzyme for 1 hr followed by substrate addition and measured after 2 hrs by fluorescence analysis
Sequence of Histone deacetylase 4 (P56524 whole entry, the tested form may be a part): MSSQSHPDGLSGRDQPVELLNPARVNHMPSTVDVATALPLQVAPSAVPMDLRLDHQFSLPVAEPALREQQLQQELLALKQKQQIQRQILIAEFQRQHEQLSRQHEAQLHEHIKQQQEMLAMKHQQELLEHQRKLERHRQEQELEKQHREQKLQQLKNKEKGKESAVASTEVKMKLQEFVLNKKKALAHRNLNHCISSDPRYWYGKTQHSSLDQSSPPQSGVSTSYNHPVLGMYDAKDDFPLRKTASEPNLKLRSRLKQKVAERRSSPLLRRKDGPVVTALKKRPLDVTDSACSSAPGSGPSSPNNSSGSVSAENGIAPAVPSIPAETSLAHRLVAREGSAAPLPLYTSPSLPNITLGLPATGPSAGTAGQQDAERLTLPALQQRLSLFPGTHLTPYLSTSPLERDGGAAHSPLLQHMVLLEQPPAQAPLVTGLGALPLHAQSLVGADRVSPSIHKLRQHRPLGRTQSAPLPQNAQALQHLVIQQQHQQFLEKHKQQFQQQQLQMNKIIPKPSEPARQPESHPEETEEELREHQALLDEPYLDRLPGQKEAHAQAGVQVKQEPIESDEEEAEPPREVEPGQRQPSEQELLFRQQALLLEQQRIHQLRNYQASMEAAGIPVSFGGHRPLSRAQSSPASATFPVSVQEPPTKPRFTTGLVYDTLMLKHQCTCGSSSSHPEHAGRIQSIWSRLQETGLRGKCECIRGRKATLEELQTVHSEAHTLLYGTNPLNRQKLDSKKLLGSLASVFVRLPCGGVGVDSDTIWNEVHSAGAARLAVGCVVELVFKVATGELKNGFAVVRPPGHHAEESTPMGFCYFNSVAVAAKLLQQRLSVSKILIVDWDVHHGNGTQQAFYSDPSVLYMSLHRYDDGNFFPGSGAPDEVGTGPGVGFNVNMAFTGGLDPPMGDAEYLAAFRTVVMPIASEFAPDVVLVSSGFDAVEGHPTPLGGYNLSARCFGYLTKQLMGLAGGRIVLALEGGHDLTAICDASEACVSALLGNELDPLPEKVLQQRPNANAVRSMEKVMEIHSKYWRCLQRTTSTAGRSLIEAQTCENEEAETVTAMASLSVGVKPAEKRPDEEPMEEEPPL

Sequence of Histone deacetylase 9 (Q9UKV0 whole entry, the tested form may be a part): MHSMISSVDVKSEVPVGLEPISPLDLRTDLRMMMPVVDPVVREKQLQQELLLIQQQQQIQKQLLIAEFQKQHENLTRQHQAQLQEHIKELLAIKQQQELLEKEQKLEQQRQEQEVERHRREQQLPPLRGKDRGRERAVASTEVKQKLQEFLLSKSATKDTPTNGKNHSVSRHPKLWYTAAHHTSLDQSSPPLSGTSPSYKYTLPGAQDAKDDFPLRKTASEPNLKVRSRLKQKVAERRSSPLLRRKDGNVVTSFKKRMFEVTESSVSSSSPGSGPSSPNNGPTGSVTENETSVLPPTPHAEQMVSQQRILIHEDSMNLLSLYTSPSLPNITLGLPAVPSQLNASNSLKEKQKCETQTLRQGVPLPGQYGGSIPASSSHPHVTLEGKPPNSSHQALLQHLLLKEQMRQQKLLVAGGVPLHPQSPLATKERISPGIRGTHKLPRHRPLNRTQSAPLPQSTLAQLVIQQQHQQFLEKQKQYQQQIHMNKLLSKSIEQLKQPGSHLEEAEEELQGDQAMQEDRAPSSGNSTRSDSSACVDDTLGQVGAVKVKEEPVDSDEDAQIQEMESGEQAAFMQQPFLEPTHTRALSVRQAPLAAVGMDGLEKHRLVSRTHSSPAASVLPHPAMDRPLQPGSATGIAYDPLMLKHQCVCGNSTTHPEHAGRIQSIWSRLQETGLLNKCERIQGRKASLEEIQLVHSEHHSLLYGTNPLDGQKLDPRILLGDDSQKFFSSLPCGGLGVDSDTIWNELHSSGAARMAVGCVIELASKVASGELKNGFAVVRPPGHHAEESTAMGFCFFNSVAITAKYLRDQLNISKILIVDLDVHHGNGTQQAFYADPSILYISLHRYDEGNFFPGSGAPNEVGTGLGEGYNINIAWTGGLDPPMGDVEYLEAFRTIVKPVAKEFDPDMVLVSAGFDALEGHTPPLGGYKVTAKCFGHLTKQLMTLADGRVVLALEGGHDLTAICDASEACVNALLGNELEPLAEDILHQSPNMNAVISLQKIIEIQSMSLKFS

Structure (SMILES) | CC50 [1] | CC50 [2] | IC50 [3] | IC50 [4] | GI50 [5] | GI50 [6] | IC50 [7] | IC50 [8] | IC50 ([5]; MV4-11, 48 h)
CCCNNC(=O)c1ccc(CNC(=O)c2cc3cnccc3[nH]2)cc1 | 0.0582 µM | > 100 µM | > 10 µM | > 10 µM | 0.0236 µM | 0.0512 µM | > 10 µM | > 10 µM | 
CCCNNC(=O)c1ccc(CNC(=O)/C=C/c2cccnc2)cc1 | 0.218 µM | > 100 µM | > 10 µM | > 10 µM | 0.0383 µM | 0.0422 µM | > 10 µM | > 10 µM | 0.0608 µM
